The values below come from ChEMBL document CHEMBL1140887, “Synthesis of novel 1,4-benzoxazin-3-one derivatives as inhibitors against tyrosine kinases” (Bioorg Med Chem, 2009).

Bounds are passed on as bounds.

For assay [1], the target named is Tyrosine-protein kinase ABL1 (Homo sapiens, UniProt P00519). Nature of the assay: Inhibition of ABL expressed in baculovirus system by ELISA.
Assay [2] has as its target T1, Vascular endothelial growth factor receptor 2 (Homo sapiens, UniProt P35968). The assay can be described thus: Inhibition of KDR expressed in baculovirus system at 4 ug/ml by ELISA. Background: ELISA stands for enzyme-linked immunosorbent assay.
Assay [3] deals with T1, Vascular endothelial growth factor receptor 2. The assay can be described thus: Inhibition of KDR expressed in baculovirus system by ELISA.

T1 sequence (P35968 whole entry): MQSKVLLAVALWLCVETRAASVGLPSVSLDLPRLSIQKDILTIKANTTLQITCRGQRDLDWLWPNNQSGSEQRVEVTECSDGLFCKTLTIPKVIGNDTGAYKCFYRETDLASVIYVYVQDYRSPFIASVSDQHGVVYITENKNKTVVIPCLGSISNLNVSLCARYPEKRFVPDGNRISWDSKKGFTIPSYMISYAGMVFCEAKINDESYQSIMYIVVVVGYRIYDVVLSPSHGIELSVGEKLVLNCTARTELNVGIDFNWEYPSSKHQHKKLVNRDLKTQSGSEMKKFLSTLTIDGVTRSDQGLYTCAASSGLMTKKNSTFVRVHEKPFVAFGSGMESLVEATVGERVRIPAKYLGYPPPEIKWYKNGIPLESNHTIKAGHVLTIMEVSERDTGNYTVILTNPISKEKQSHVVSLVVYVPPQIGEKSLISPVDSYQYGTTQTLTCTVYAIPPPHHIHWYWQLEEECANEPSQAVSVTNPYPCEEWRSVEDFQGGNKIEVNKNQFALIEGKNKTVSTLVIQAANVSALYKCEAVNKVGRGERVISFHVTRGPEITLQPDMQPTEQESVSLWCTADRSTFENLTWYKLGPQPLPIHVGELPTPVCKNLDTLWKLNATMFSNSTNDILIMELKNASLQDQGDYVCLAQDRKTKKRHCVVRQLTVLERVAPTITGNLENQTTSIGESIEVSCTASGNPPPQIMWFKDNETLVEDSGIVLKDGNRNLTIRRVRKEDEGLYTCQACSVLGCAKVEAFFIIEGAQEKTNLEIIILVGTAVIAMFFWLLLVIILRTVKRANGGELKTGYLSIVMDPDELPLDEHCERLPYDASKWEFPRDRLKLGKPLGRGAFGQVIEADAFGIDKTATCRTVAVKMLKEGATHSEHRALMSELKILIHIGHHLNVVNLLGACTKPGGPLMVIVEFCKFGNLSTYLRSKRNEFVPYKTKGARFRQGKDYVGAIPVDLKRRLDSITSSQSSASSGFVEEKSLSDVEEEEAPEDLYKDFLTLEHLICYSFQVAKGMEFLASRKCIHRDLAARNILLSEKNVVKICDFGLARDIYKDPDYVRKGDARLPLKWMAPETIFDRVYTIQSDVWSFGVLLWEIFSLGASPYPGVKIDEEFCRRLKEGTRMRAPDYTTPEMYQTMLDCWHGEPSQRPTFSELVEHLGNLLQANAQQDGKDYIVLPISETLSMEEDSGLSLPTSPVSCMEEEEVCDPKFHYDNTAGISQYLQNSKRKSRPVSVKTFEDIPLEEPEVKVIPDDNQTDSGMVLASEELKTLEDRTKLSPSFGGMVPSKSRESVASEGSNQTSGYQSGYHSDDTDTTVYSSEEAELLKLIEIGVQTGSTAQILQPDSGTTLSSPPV
Tyrosine-protein kinase ABL1, sequence (P00519 whole entry): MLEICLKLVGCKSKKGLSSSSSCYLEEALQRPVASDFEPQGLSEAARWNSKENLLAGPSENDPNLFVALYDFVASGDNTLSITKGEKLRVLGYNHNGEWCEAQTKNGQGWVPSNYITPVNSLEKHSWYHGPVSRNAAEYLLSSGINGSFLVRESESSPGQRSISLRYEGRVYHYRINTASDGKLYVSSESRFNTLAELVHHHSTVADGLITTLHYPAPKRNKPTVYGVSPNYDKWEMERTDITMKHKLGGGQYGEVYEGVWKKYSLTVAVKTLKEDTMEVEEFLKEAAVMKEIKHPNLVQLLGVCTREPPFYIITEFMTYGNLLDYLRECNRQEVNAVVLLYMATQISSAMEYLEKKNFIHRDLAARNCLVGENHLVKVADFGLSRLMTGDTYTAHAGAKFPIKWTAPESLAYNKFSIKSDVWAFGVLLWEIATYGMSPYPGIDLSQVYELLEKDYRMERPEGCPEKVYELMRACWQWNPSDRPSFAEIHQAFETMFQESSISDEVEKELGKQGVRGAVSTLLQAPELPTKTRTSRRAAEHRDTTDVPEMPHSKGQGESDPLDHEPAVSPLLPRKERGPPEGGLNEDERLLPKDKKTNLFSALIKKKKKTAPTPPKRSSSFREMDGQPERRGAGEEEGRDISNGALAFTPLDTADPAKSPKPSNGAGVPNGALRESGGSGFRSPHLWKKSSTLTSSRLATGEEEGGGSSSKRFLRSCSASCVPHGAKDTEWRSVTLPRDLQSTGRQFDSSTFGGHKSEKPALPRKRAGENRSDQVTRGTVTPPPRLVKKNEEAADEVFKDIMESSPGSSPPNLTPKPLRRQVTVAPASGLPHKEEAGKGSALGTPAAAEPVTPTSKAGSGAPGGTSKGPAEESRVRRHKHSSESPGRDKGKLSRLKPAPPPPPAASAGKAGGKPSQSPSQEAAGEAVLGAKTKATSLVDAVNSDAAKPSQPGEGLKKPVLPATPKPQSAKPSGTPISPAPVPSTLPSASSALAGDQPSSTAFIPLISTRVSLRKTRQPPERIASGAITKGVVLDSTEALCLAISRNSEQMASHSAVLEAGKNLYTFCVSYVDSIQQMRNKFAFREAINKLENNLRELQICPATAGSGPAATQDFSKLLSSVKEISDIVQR

As a reminder, the IC50 is the point on the concentration scale where inhibition reaches its midpoint. A lower IC50 goes with greater potency in that assay. With `CN(C)CCNC(=O)/C=C/c1csc(/C=C2\Oc3ccccc3NC2=O)c1`, in assay [1], the IC50 is more than 1040 nM.

As for `O=C(/C=C/c1ccc(/C=C2\Oc3ccccc3NC2=O)s1)NCc1ccccn1`, the IC50 in assay [1] is more than 991 nM.

As a reminder, the inhibition is how much of the control response was suppressed. Higher therefore signals a strong effect. Turning to `CN(C)CCNC(=O)/C=C/c1cccc(/C=C2\Oc3ccccc3NC2=O)c1`, the inhibition in assay [2] worked out at 70.8%.

In the case of `O=C(/C=C/c1cccc(/C=C2\Oc3ccccc3NC2=O)c1)NCc1ccccn1`, the IC50 in assay [1] was more than 1010 nM.

As to `CN(C)CCNC(=O)/C=C/c1ccc(/C=C2\Oc3ccccc3N(C)C2=O)s1`, half-maximal inhibition in assay [1] (IC50) was put at 820 nM. The compound further had an inhibition in assay [2] of 83.9%.

In assay [2], `CN1C(=O)/C(=C/c2ccc(/C=C/C(=O)N3CCCC3)s2)Oc2ccccc21` displayed an inhibition of 79.2%.

In assay [1], `CN1C(=O)/C(=C/c2ccc(/C=C/C(=O)NCc3ccncc3)s2)Oc2ccccc21` had an IC50 of 1760 nM. In addition, the inhibition in assay [2] turned out to be 77.1%.

`CN1C(=O)/C(=C/c2ccc(/C=C/C(=O)N3CCN(CCO)CC3)s2)Oc2ccccc21`: the inhibition in assay [2] worked out at 88.3%.

`O=C(/C=C/c1ccc(/C=C2\Oc3ccccc3NC2=O)s1)Nc1ccc(N2CCOCC2)cc1` showed a half-inhibitory concentration (IC50) in assay [1] of 290 nM.

For the compound `O=C1Nc2ccccc2O/C1=C\c1cc(/C=C/C(=O)N2CCCC2)cs1`, the IC50 in assay [1] was more than 1090 nM.

`O=C1Nc2ccccc2O/C1=C\c1ccc(/C=C/C(=O)N2CCCC2)o1` gave an IC50 in assay [1] of more than 1140 nM.

On to `CN1C(=O)/C(=C/c2cccc(/C=C/C(=O)Nc3ccc(N4CCOCC4)cc3)c2)Oc2ccccc21`, for which the inhibition in assay [2] was 79.9%.

`O=C1Nc2ccccc2O/C1=C\c1ccc(/C=C/C(=O)N2CCN(CCO)CC2)o1` displayed an inhibition in assay [2] of 76.7%.

For the compound `CN1C(=O)/C(=C/c2ccc(/C=C/C(=O)NCc3cccnc3)s2)Oc2ccccc21`, the IC50 in assay [1] is 1900 nM; in assay [3] it was 1480 nM. Besides, the inhibition in assay [2] came out at 76.7%.
